From patent US20050031651A1, “Therapeutic formulations for the treatment of beta-amyloid related diseases” (priority 2002, published 2005)
Read-outs that look alike come from different tables or passages of the source.

Experiments:
[1] = test system: mild and moderate Alzheimer's disease patients; conditions: reference value, cited from earlier work
amyloid deposits = conditions: mice genetically prone to overproduce amyloid-β; nine week period; cited from earlier work
[2] = test system: mild and moderate Alzheimer's disease patients; experiment: Change in ADAS-Cog score of Alzheimer's patients over nine months of treatment; assay type: in vivo, human; conditions: Mild + Moderate AD patients combined, observed, negative change = improvement
Text: In this example, mild and moderate patients have been treated with an alkanesulfonic acid, namely 3-amino-1-propanesulfonic acid, in combination with other therapeutic compounds used to diminish symptoms characteristic of Alzheimer's disease (e.g., loss of cognitive functions). The examples comprise the use of an alkanesulfonic acid in combination with cognitive enhancers such as acetylcholine esterase inhibitors (“AChEi”). The effect of these combination therapies on the change in ADAS-cog score in the patients was determined.
Patients were treated with the test alkanesulfonic acid for a period of 9 months. A group of patients received the test compound alone while another group were treated with the test compound in combination with an AChEi, namely donepezil.
Effect on ADAS-Cog. Upon entering the study, Alzheimer's patients were categorized as being “mild” or “moderate” according to their MMSE (“Mini Mental State Examination”) score. B.W.Rover, et al., “Mini-mental state exam in clinical practice.” Hospital Practice 22(1 A), 99 et seq. (1987). (According to this examination a MMSE score in the range of 19 to 26 was considered “mild,” and a score in the range 13 to 18 was considered “moderate”). Then, the change in mental function of these patients was analyzed by using their ADAS-Cog scores, which were recorded periodically over a nine month period. […]

Aβ CSF concentration = Aβ CSF concentration of patients at time 0 and 3 months (FPLC, ELISA); assay type: in vivo, human; conditions: for effect on CSF level of Aβ: 3-month period
Procedure: The alkanesulfonic acid used in the study is known to have an effect on the concentration of Aβ in the brain. We also determined the effect of test compound on the change in Aβ CSF levels of patients with mild to moderate Alzheimer's disease compared to that seen in patients treated with a triple combination of test compound with AChEi and statin.
Patients treated with alkanesulfonic acid test compound in the presence or absence of AChEi and statin were evaluated for their Aβ CSF concentration at time 0 and 3 months following the initiation of treatment with the alkanesulfonic acid. The change in AP42 CSF concentration was compared to the respective placebo group.
(§1) Methodology. CSF was obtained from patients before and after treatment with the test compound at daily doses of 100 mg, 200 mg, or 300 mg. CSF was fractionated by FPLC following treatment with formic acid, and then the Aβ containing fraction was lyophilised. The amount of Aβ peptide was measured using an ELISA assay (Biosource). […] The presence of the alkanesulfonic acid in the CSF was determined in patients who had received treatment for three months. In these patients, CSF was collected five hours following dosing, and levels of alkanesulfonic acid were determined by LC-MS/MS.

[3] = Presence of the alkanesulfonic acid in CSF of patients (LC-MS/MS); assay type: in vivo, human; conditions: patients treated three months, CSF collected five hours following dosing, 100, 200 or 300 mg daily
Procedure: as §1

AP42 in the brain = conditions: transgenic mice; previously shown; cited from earlier work
SM-4 cells = conditions: cited from earlier work

## COc1cc2c(cc1OC)C(=O)C(CC1CCN(Cc3ccccc3)CC1)C2 (centres unmarked) [AchEi, donepezil]
[1]; Mild AD patient group
  Change in ADAS-Cog over 9 months: +5.0 reference
[1]; Moderate AD patient group
  Change in ADAS-Cog over 9 months: +2.5 reference

## Oc1c(I)cc(Cl)c2cccnc12 [Clioquinol, 5-chloro-7-iodo-8-hydroxyquinoline]
Amyloid deposits
  adverse effects: no adverse effects
  amyloid deposits: cut amyloid deposits in half

## NCCCS(=O)(=O)O [Test compound, 3-amino-1-propanesulfonic acid]
[2]
  Change in ADAS-Cog over 9 months: −0.5 observed
[2]; listed as test compound
  Change in ADAS-Cog over 9 months: −0.5
Aβ CSF concentration; 100 mg daily doses, majority of patients
  effect on CSF level of Aβ: stable Aβ CSF levels
Aβ CSF concentration; 200 or 300 mg daily doses
  effect on CSF level of Aβ: reduce the CSF level of Aβ
Aβ CSF concentration; mild to moderate AD patients, time 0 vs 3 months after start of treatment
  decrease in Aβ CSF concentration: 34%
Aβ CSF concentration; vs placebo (test compound) or vs AChEi and statin (triple therapy), 3 months
  difference in change of Aβ CSF concentration compared to the respective control group: 49%
[3]
  presence of the alkanesulfonic acid in CSF: present in CSF of patients in a dose-dependent manner
AP42 in the brain
  levels of soluble and insoluble AP42 in the brain: decrease the levels of both soluble and insoluble AP42

## CCOC(=O)C(C)(C)Oc1ccc(Cl)cc1 [clofibrate, ethyl 2-(p-chlorophenoxy)-2-methylpropionate]
SM-4 cells; SM-4 cells, concentration range of 50-500 μM
  Aβ42 extracellular levels: increase Aβ42 extracellular levels

## Cc1cccc(Nc2cc(Cl)nc(SCC(=O)O)n2)c1C [pirinixic acid]
SM-4 cells; concentration-dependent manner
  Aβ42 production or release from SM-4 cells: decrease in Aβ42 production or release
